Laboratory results as given in ChEMBL document CHEMBL2203134, “Discovery of XL888: a novel tropane-derived small molecule inhibitor of HSP90” (Bioorg Med Chem Lett, 2012).
Values after ≈ are worked out from the molar mass of the structure shown.

Experiments:
[1] = Kinetic solubility of the compound; assay type: physicochemical; settings: read-out: Kinetic_solubility
[2] = Half life in iv dosed rat; assay type: ADME, organism-based; settings: in vivo
[3] = Clearance in iv dosed rat; assay type: ADME, organism-based; settings: in vivo
[4] = tested on: Rattus norvegicus; experiment: Dose normalized AUC in iv dosed rat; assay type: ADME, organism-based; settings: in vivo
[5] = Drug metabolism in human liver microsomes at 15 uM after 30 mins; assay type: ADME, Microsome; settings: read-out: Drug metabolism
[6] = Apparent permeability across MDCK cells; assay type: ADME, cell-based, Canis lupus familiaris; settings: dog
[7] = target: T1, Heat shock protein HSP90 (Homo sapiens, UniProt P07900+P08238); experiment: Inhibition of Hsp90 in human A549 cells assessed as Raf1 degradation after 24 hrs by Western blot analysis; assay type: cell-based
[8] = Oral bioavailability in rat; assay type: ADME, organism-based; settings: in vivo
[9] = target: T1, Heat shock protein HSP90; experiment: Displacement of biotinylated geldanamycin from human His-tagged Hsp90 by TR-FRET assay; assay type: protein assay
[10] = target: T1, Heat shock protein HSP90; experiment: Inhibition of Hsp90 in human NCI-N87 cells assessed as Her2 degradation after 24 hrs by Western blot analysis; assay type: cell-based
[11] = Oral bioavailability in rat at 5 mg/kg; assay type: ADME, organism-based; settings: in vivo
[12] = Clearance in rat at 5 mg/kg, iv; assay type: ADME, organism-based; design: dose 5 mg/kg, route intravenous; settings: in vivo
[13] = Half life in rat at 5 mg/kg, iv; assay type: ADME, organism-based; design: dose 5 mg/kg, route intravenous; settings: in vivo
[14] = tested on: Rattus norvegicus; experiment: Dose normalized AUC in rat at 5 mg/kg, iv; assay type: ADME, organism-based; design: dose 5 mg/kg, route intravenous; settings: in vivo
[15] = tested on: Rattus norvegicus; experiment: Dose normalized AUC in rat at 2.5 mg/kg, iv; assay type: ADME, organism-based; design: dose 2.5 mg/kg, route intravenous; settings: in vivo
[16] = Clearance in rat at 2.5 mg/kg, iv; assay type: ADME, organism-based; design: dose 2.5 mg/kg, route intravenous; settings: in vivo
[17] = Oral bioavailability in rat at 2.5 mg/kg; assay type: ADME, organism-based; settings: in vivo
[18] = Half life in rat at 2.5 mg/kg, iv; assay type: ADME, organism-based; design: dose 2.5 mg/kg, route intravenous; settings: in vivo

Row | SMILES | Papp [6] | IC50 [7] | IC50 [9] | IC50 [10] | other results
1 | COc1cccc(C(=O)NC2CC3CCC(C2)N3c2ccc(C(=O)NCc3ccc(N4CCN(C)CC4)cc3)cn2)c1C (configuration not stated) | 7.4 ×10⁻⁶ cm/s | 579 nM | 108 nM | – | solubility kinetic [1]: 285 µM (≈ 166 µg/mL); half-life [2]: 6.5 h; clearance [3]: 112 mL/min/kg; AUC/dose [4]: 0.23 µM·kg·h/mg; metabolised at 0.5 h, 15 µM [5]: 28%; bioavailability [8]: 28%
2 | CC(C)C(=O)c1ccc(N2C3CCC2CC(NC(=O)c2ccc(C(N)=O)c(NCC4CC4)c2)C3)nc1 (configuration not stated) | – | – | 1140 nM | 1610 nM | –
3 | Cc1cc(C(=O)NC2CC3CCC(C2)N3c2ccc(C(=O)NCc3ccccc3)cn2)c(C)cc1C(N)=O (configuration not stated) | 3 ×10⁻⁶ cm/s | > 10000 nM | – | – | –
4 | CCC(CC)Nc1cc(C(=O)NC2CC3CCC(C2)N3c2ccc(C(C)=O)cn2)ccc1C(N)=O (configuration not stated) | 67.6 ×10⁻⁶ cm/s | – | 38 nM | 52 nM | bioavailability [11]: 5%; clearance [12]: 28.5 mL/min/kg; half-life [13]: 0.5 h; AUC/dose [14]: 1.22 µM·kg·h/mg
5 | CCC(CC)Nc1cc(C(=O)NC2CC3CCC(C2)N3c2ccc(C(=O)C3CC3)cn2)ccc1C(N)=O (configuration not stated) | 14.1 ×10⁻⁶ cm/s | – | 86 nM | 117 nM | bioavailability [11]: 11%; clearance [12]: 39.7 mL/min/kg; half-life [13]: 0.5 h; AUC/dose [14]: 0.78 µM·kg·h/mg
6 | Cc1cc(CO)ccc1C(=O)NC1CC2CCC(C1)N2c1ccc(C(=O)NCc2ccccc2)cn1 (configuration not stated) | 3 ×10⁻⁶ cm/s | 1900 nM | 128 nM | – | –
7 | CCNC(=O)c1ccc(N2C3CCC2CC(NC(=O)c2ccc(C(N)=O)c(NCC4CC4)c2)C3)nc1 (configuration not stated) | 32.4 ×10⁻⁶ cm/s | – | 104 nM | 2170 nM | –
8 | Cc1cc(C(N)=O)c(NC(C)C)cc1C(=O)NC1CC2CCC(C1)N2c1ccc(C(=O)C2CC2)cn1 (configuration not stated) | 20.6 ×10⁻⁶ cm/s | – | 21 nM | 130 nM | AUC/dose [15]: 0.57 µM·kg·h/mg; clearance [16]: 63.2 mL/min/kg; bioavailability [17]: 33%; half-life [18]: 1.5 h
9 | NC(=O)c1ccc(C(=O)NC2CC3CCC(C2)N3c2ccc(C(=O)NC3CCCC3)cn2)cc1NCC1CC1 (configuration not stated) | 4.8 ×10⁻⁶ cm/s | – | 89 nM | 351 nM | AUC/dose [15]: 0.49 µM·kg·h/mg; clearance [16]: 63.5 mL/min/kg; bioavailability [17]: 0%; half-life [18]: 0.6 h
10 | NC(=O)c1ccc(C(=O)NC2CC3CCC(C2)N3c2ccc(C(=O)C3CC3)cn2)cc1NCC1CC1 (configuration not stated) | 50.3 ×10⁻⁶ cm/s | – | 120 nM | 494 nM | AUC/dose [15]: 3.7 µM·kg·h/mg; clearance [16]: 8.43 mL/min/kg; bioavailability [17]: 41%; half-life [18]: 22 h
11 | CCCNc1cc(C(=O)NC2CC3CCC(C2)N3c2ccc(C(=O)C3CC3)cn2)c(C)cc1C(N)=O (configuration not stated) | 23.4 ×10⁻⁶ cm/s | – | 24 nM | 1122 nM | –
12 | C[C@H](NC(=O)c1ccc(N2C3CCC2CC(NC(=O)c2ccc(C(N)=O)c(Nc4ccccc4)c2)C3)nc1)c1ccc(N2CCN(C)CC2)cc1 (some centres not stated) | 0.32 ×10⁻⁶ cm/s | 105 nM | 260 nM | – | –
13 | Cc1cc(C(N)=O)c(NC2CCCC2)cc1C(=O)NC1CC2CCC(C1)N2c1ccc(C(=O)C2CC2)cn1 (configuration not stated) | 14.6 ×10⁻⁶ cm/s | – | 27 nM | 316 nM | AUC/dose [15]: 2.26 µM·kg·h/mg; clearance [16]: 14.5 mL/min/kg; bioavailability [17]: 28%; half-life [18]: 1.1 h
14 | COc1cccc(C(=O)NC2CC3CCC(C2)N3c2ccc(C(=O)N[C@@H](C)c3ccccc3)cn2)c1C (some centres not stated) | 38 ×10⁻⁶ cm/s | 421 nM | 126 nM | – | solubility kinetic [1]: 2.2 µM (≈ 1.1 µg/mL); metabolised at 0.5 h, 15 µM [5]: 68%
